Measurements: patent US5416191A, “Bradykinin antagonists” (Cortech, Inc., priority 1993, dated 1995)
Like-named read-outs stand apart in the source and are kept apart here. Peptide text beside a SMILES is read from it.

Columns and labels:
[1] = molecular target: T1, bradykinin receptor of the B2 class (rat uterus) (Rattus norvegicus, UniProt P25023); test: Rat uterus (RU) in vitro, antagonism of bradykinin
T1 construct: concentration effect curves to bradykinin (BK) on rat uterus in vitro; from tissue; host or cells: rat uterus
T1 sequence (P25023 1-396): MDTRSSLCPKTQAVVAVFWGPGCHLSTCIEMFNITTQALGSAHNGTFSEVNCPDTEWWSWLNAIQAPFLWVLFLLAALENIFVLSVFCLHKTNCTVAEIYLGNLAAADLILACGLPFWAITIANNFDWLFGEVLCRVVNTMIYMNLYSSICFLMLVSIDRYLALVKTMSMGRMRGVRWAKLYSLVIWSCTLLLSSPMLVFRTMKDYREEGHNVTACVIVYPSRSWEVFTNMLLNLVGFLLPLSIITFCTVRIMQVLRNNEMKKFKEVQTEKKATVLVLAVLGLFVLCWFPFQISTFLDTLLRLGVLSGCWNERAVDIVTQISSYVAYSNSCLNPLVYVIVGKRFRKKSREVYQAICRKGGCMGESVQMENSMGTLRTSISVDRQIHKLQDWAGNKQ
Method: Thus in vitro studies were performed on standard assay systems, namely, guinea-pig ileum (GPI), rat uterus (RU) and rabbit jugular vein (RJV). […] The PA2 can be defined as the negative logarithm of the molar concentration of the antagonist in the presence of which the potency of the agonist is reduced two-fold, i.e. twice the amount of agonist is required to produce a given response in the presence of, than in the absence of, the antagonist. A high potency of antagonism is indicated by a high PA2 value, i.e., a low concentration of antagonist is effective.
The percentage recovery (% Rec) was also determined for compounds with respect to each assay.
With respect to duration of activity, it is noted that after exposure to the highest concentration of antagonist, each tissue was washed extensively and then assessed for recovery from the antagonist effect.
Potency in the rat uterus assay was assessed as described above and PA2 values determined.

[2] = molecular target: T2, bradykinin receptor of the B2 class (guinea-pig ileum) (Cavia porcellus, UniProt O70526)
T2 sequence (O70526 1-372): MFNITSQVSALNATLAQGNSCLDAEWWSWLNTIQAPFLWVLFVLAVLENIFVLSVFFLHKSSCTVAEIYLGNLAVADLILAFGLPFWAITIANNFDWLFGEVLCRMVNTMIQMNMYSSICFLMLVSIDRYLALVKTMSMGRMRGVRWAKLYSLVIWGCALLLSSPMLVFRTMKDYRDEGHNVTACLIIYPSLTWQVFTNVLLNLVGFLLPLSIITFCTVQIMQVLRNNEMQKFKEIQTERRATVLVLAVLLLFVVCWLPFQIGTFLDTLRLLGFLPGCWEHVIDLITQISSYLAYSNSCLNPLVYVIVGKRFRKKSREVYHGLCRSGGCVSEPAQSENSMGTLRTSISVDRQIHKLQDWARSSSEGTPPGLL

[3] = Table C, rat uterus, read-out: pA2 DIMER (converted)

CC(C)C[C@H](NC(=O)[C@@H](Cc1ccccc1)NC(=O)[C@H](CO)NC(=O)[C@H](Cc1ccccc1)NC(=O)CNC(=O)[C@@H]1C[C@@H](O)CN1C(=O)[C@@H]1CCCN1C(=O)[C@H](CSC1CC(=O)N(CCCCCCN2C(=O)CC(SC[C@H](NC(=O)[C@H](N)CCCNC(=N)N)C(=O)N3CCC[C@H]3C(=O)N3C[C@H](O)C[C@H]3C(=O)NCC(=O)N[C@@H](Cc3ccccc3)C(=O)N[C@@H](CO)C(=O)N[C@H](Cc3ccccc3)C(=O)N[C@@H](CC(C)C)C(=O)N[C@@H](CCCNC(=N)N)C(=O)O)C2=O)C1=O)NC(=O)[C@H](N)CCCNC(=N)N)C(=O)N[C@@H](CCCNC(=N)N)C(=O)O (stereo partly drawn) [CP-0153] (HELM PEPTIDE1{[dR].C.P.[Hyp].G.F.S.[dF].L.R}|PEPTIDE2{[dR].C.P.[Hyp].G.F.S.[dF].L.R}|CHEM1{[O=C1CC([*:1])C(=O)N1CCCCCCN1C(=O)CC([*:2])C1=O]}$PEPTIDE1,CHEM1,2:R3-1:R1|PEPTIDE2,CHEM1,2:R3-1:R2$$$V2.0)
% REC DIMER ([1]; Table C, rat uterus): 100% | Kb [1, 3]: 20 nM | Kb [2]: ~20 nM

CC(C)C[C@H](NC(=O)[C@@H](Cc1ccccc1)NC(=O)[C@H](CO)NC(=O)[C@H](Cc1ccccc1)NC(=O)CNC(=O)[C@@H]1C[C@@H](O)CN1C(=O)[C@H](CSC1CC(=O)N(CCCCCCN2C(=O)CC(SC[C@H](NC(=O)[C@H](CCCNC(=N)N)NC(=O)[C@H](N)CCCNC(=N)N)C(=O)N3C[C@H](O)C[C@H]3C(=O)NCC(=O)N[C@@H](Cc3ccccc3)C(=O)N[C@@H](CO)C(=O)N[C@H](Cc3ccccc3)C(=O)N[C@@H](CC(C)C)C(=O)N[C@@H](CCCNC(=N)N)C(=O)O)C2=O)C1=O)NC(=O)[C@H](CCCNC(=N)N)NC(=O)[C@H](N)CCCNC(=N)N)C(=O)N[C@@H](CCCNC(=N)N)C(=O)O (stereo partly drawn) [CP-0154] (HELM PEPTIDE1{[dR].R.C.[Hyp].G.F.S.[dF].L.R}|PEPTIDE2{[dR].R.C.[Hyp].G.F.S.[dF].L.R}|CHEM1{[O=C1CC([*:1])C(=O)N1CCCCCCN1C(=O)CC([*:2])C1=O]}$PEPTIDE1,CHEM1,3:R3-1:R1|PEPTIDE2,CHEM1,3:R3-1:R2$$$V2.0)
% REC DIMER ([1]; Table C, rat uterus): 90% | Kb [1, 3]: 63.1 nM | Kb [2]: ~25.1 nM

CC(C)C[C@H](NC(=O)[C@@H](Cc1ccccc1)NC(=O)[C@H](CO)NC(=O)[C@H](Cc1ccccc1)NC(=O)CNC(=O)[C@H](CSC1CC(=O)N(CCCCCCN2C(=O)CC(SC[C@H](NC(=O)[C@@H]3CCCN3C(=O)[C@H](CCCNC(=N)N)NC(=O)[C@H](N)CCCNC(=N)N)C(=O)NCC(=O)N[C@@H](Cc3ccccc3)C(=O)N[C@@H](CO)C(=O)N[C@H](Cc3ccccc3)C(=O)N[C@@H](CC(C)C)C(=O)N[C@@H](CCCNC(=N)N)C(=O)O)C2=O)C1=O)NC(=O)[C@@H]1CCCN1C(=O)[C@H](CCCNC(=N)N)NC(=O)[C@H](N)CCCNC(=N)N)C(=O)N[C@@H](CCCNC(=N)N)C(=O)O (stereo partly drawn) [CP-0155] (HELM PEPTIDE1{[dR].R.P.C.G.F.S.[dF].L.R}|PEPTIDE2{[dR].R.P.C.G.F.S.[dF].L.R}|CHEM1{[O=C1CC([*:1])C(=O)N1CCCCCCN1C(=O)CC([*:2])C1=O]}$PEPTIDE1,CHEM1,4:R3-1:R1|PEPTIDE2,CHEM1,4:R3-1:R2$$$V2.0)
% REC DIMER ([1]; Table C, rat uterus): 100% | Kb [1, 3]: 631 nM | Kb [2]: ~79.4 nM

CC(C)C[C@H](NC(=O)[C@@H](Cc1ccccc1)NC(=O)[C@H](CO)NC(=O)[C@H](CSC1CC(=O)N(CCCCCCN2C(=O)CC(SC[C@H](NC(=O)CNC(=O)[C@@H]3C[C@@H](O)CN3C(=O)[C@@H]3CCCN3C(=O)[C@H](CCCNC(=N)N)NC(=O)[C@H](N)CCCNC(=N)N)C(=O)N[C@@H](CO)C(=O)N[C@H](Cc3ccccc3)C(=O)N[C@@H](CC(C)C)C(=O)N[C@@H](CCCNC(=N)N)C(=O)O)C2=O)C1=O)NC(=O)CNC(=O)[C@@H]1C[C@@H](O)CN1C(=O)[C@@H]1CCCN1C(=O)[C@H](CCCNC(=N)N)NC(=O)[C@H](N)CCCNC(=N)N)C(=O)N[C@@H](CCCNC(=N)N)C(=O)O (stereo partly drawn) [CP-0156] (HELM PEPTIDE1{[dR].R.P.[Hyp].G.C.S.[dF].L.R}|PEPTIDE2{[dR].R.P.[Hyp].G.C.S.[dF].L.R}|CHEM1{[O=C1CC([*:1])C(=O)N1CCCCCCN1C(=O)CC([*:2])C1=O]}$PEPTIDE1,CHEM1,6:R3-1:R1|PEPTIDE2,CHEM1,6:R3-1:R2$$$V2.0)
% REC DIMER ([1]; Table C, rat uterus): 75% | Kb [1, 3]: 7.94 nM | Kb [2]: ~12.6 nM

CC(C)C[C@H](NC(=O)[C@@H](Cc1ccccc1)NC(=O)[C@H](CO)NC(=O)[C@H](Cc1ccccc1)NC(=O)CNC(=O)[C@@H]1C[C@@H](O)CN1C(=O)[C@@H]1CCCN1C(=O)[C@H](CCCNC(=N)N)NC(=O)[C@H](N)CSC1CC(=O)N(CCCCCCN2C(=O)CC(SC[C@@H](N)C(=O)N[C@@H](CCCNC(=N)N)C(=O)N3CCC[C@H]3C(=O)N3C[C@H](O)C[C@H]3C(=O)NCC(=O)N[C@@H](Cc3ccccc3)C(=O)N[C@@H](CO)C(=O)N[C@H](Cc3ccccc3)C(=O)N[C@@H](CC(C)C)C(=O)N[C@@H](CCCNC(=N)N)C(=O)O)C2=O)C1=O)C(=O)N[C@@H](CCCNC(=N)N)C(=O)O (stereo partly drawn) [CP-0161] (HELM PEPTIDE1{[dC].R.P.[Hyp].G.F.S.[dF].L.R}|PEPTIDE2{[dC].R.P.[Hyp].G.F.S.[dF].L.R}|CHEM1{[O=C1CC([*:1])C(=O)N1CCCCCCN1C(=O)CC([*:2])C1=O]}$PEPTIDE1,CHEM1,1:R3-1:R1|PEPTIDE2,CHEM1,1:R3-1:R2$$$V2.0)
% REC DIMER ([1]; Table C, rat uterus): 100% | Kb [1, 3]: 316 nM | Kb [2]: ~501 nM

CC(C)C[C@H](NC(=O)[C@@H](Cc1ccccc1)NC(=O)[C@H](CSC1CC(=O)N(c2ccc(N3C(=O)CC(SC[C@H](NC(=O)[C@H](Cc4ccccc4)NC(=O)CNC(=O)[C@@H]4C[C@@H](O)CN4C(=O)[C@@H]4CCCN4C(=O)[C@H](CCCNC(=N)N)NC(=O)[C@H](N)CCCNC(=N)N)C(=O)N[C@H](Cc4ccccc4)C(=O)N[C@@H](CC(C)C)C(=O)N[C@@H](CCCNC(=N)N)C(=O)O)C3=O)cc2)C1=O)NC(=O)[C@H](Cc1ccccc1)NC(=O)CNC(=O)[C@@H]1C[C@@H](O)CN1C(=O)[C@@H]1CCCN1C(=O)[C@H](CCCNC(=N)N)NC(=O)[C@H](N)CCCNC(=N)N)C(=O)N[C@@H](CCCNC(=N)N)C(=O)O (stereo partly drawn) [CP-0170] (HELM PEPTIDE1{[dR].R.P.[Hyp].G.F.C.[dF].L.R}|PEPTIDE2{[dR].R.P.[Hyp].G.F.C.[dF].L.R}|CHEM1{[O=C1CC([*:1])C(=O)N1c1ccc(N2C(=O)CC([*:2])C2=O)cc1]}$PEPTIDE1,CHEM1,7:R3-1:R1|PEPTIDE2,CHEM1,7:R3-1:R2$$$V2.0)
RAT UTERUS % RECOVERED ([1]; Table E): 100% | Kb ([1]; Table E, read-out: RAT UTERUS pA2 (converted)): 100 nM | Kb [2]: ~501 nM
